Laboratory results: patent US20240139280A1, “USE OF HIF-1-ALPHA INHIBITORS IN CANCER IMMUNOTHERAPY” (ONCOC4, INC., priority 2021, published 2024)

How the values were obtained:
[1] = test system: MC38 tumor; experiment: MC38 tumor growth in mice; format: in vivo; conditions: echinomycin 0.15 mg/kg
Method: FIGS. 3A-D show the therapeutic effects of echinomycin on tumor growth in immunodeficient and immunocompetent mice. FIG. 3A. Experimental design. Three murine tumor lines were tested: 4T1, E0771, or MC38. For each, immunodeficient and immunocompetent mice were inoculated (day 0), and treatment was initiated with control liposomes (vehicle) or echinomycin liposomes (LEM) on day 6, indicated by arrows in FIGS. 3B-3D. The kinetics of tumor growth were compared to deduce the role of adaptive immunity in the therapeutic effects of echinomycin. FIG. 3B. 4T1 cells (1×10^6) were transplanted into mammary fat pad of NSG and BALB/c mice, which received vehicle or echinomycin (0.15 mg/kg) (arrows). Mean tumor volumes±SEM are shown for one of two independent experiments (n=10/group). FIG. 3C. Kinetics of E0771 tumor growth. E0771 cells (0.7×10^6) were transplanted into mammary fat pad of NSG and C57BL/6 mice, which received vehicle or echinomycin (0.25 mg/kg) (arrows). Mean tumor volumes±SEM are shown for one of two independent experiments (n=5/group). FIG. 3D. Kinetics of MC38 tumor growth. […]
Tumor Models The details of each experiment are specified in the figure legends. […] Tumor volumes were calculated and reported based on the formula […], where a is the longer diameter, and b is the shorter diameter. […]

[2] = test system: intestinal tissues; experiment: Ipilimumab-induced GI-irAE in human CTLA4 knockin mice (FITC-dextran, histology, PD-L1)
Method: Experimental design for GI-irAE induction by Ipilimumab, with or without additional therapies. 10-day old CTLA4h/h mice received 0.1 mg of Ipilimumab on days 10, 13, 16, and 19 after birth to induce the GI-irAE phenotype, measured by FITC-dextran assay on day 32. On day 33, the mice were sacrificed for histological and immunofluorescent analysis of intestinal tissues, and flow cytometry, etc. […] Aggregate data from 4 experiments are presented. […] Starting on day 10 after birth, the mice began receiving treatment with vehicle (n=33), echinomycin (n=27), Ipilimumab (n=33), Ipilimumab+echinomycin (n=26), Ipilimumab+RMP1-14 (n=27), Ipilimumab+echinomycin+RMP1-14 (n=28), or Ipilimumab+echinomycin+XMG1.2 (n=15). Echinomycin (10 μg/kg), Ipilimumab (0.1 mg/mouse/injection), RMP1-14 (0.2 mg/mouse/injection), and XMG1.2 (0.2 mg/mouse/injection). Vehicle or echinomycin (10 μg/kg) were given once every three days for 8 doses, and mAbs (0.1 mg/mo. for Ipilimumab; 0.2 mg/mo. for RMP1-14 and XMG1.2) once every three days for 4 doses. Data collection was performed as described in (FIG. 8A). […] Serum FITC-dextran intensity shown as mean±SEM for individual mice pooled from 3 independent experiments. […] Statistics were determined by unpaired t tests (two-tailed) for group means. […] Representative H&E images from intestines of Ipilimumab-treated mice additionally treated with echinomycin (panel i), RMP1-14 (panels ii-iv), echinomycin+RMP1-14 (panels v-vi), or echinomycin+XMG1.2 (panels vii-viii). […] Representative immunofluorescence images showing relative expression of PD-L1 in jejunum of mice from different treatment groups.
Therefore, we used intestinal permeability to orally administrated FITC-dextran and histology as the readout for irAE (FIG. 8A).

CSC1SC[C@H]2C(=O)N(C)[C@@H](C(C)C)C(=O)OC[C@@H](NC(=O)c3cnc4ccccc4n3)C(=O)N[C@@H](C)C(=O)N(C)[C@@H]1C(=O)N(C)[C@@H](C(C)C)C(=O)OC[C@@H](NC(=O)c1cnc3ccccc3n1)C(=O)N[C@@H](C)C(=O)N2C (stereo in doubt) [echinomycin, N,N′-(2,4,12,15,17,25-hexamethyl-11,24-bis(1-methylethyl)-27-(methylthio)-3,6,10,13,16,19,23,26-octaoxo-9,22-dioxa-28-thia-2,5,12,15,18,25-hexaazabicyclo(12.12.3)nonacosane-7,20-diyl)bis(2-quinoxalinecarboxamide)]
MC38 tumor growth, combination study ([1]; C57BL/6, mAbs 0.2 mg/mouse/injection, vs vehicle): significant inhibition of tumor growth | MC38 tumor growth ([1]; C57BL/6 vs NSG): all therapeutic effects required immune competence | PD-L1 expression in the intestines ([2]; Ipilimumab 0.1 mg/mouse/injection, echinomycin 10 μg/kg added to Ipilimumab): enhanced PD-L1 expression | Ipilimumab-induced intestinal leakage (FITC-dextran) ([2]; agent added to Ipilimumab (anti-PD-1 added to Ipilimumab+echinomycin)): protected against Ipilimumab-induced intestinal leakage | H&E findings in intestines of Ipilimumab-treated mice additionally treated with the agent ([2]; representative images, FIG. 8F panels): normal pathology
